In ChEMBL document CHEMBL5500384, “New synergistic benzoquinone scaffolds as inhibitors of mycobacterial cytochrome bc1 complex to treat multi-drug resistant tuberculosis” (Eur J Med Chem, 2024) one finds MIC99.9 and MIC data, which are given here for ten molecules.

≈ marks a conversion by molar mass, not a printed value.

Broadly, the MIC is the lowest concentration found to suppress growth. Low values mean greater potency, high ones weaker potency.

Common to all, as to format: functional
The test system of test [1] is Mycobacterium tuberculosis. The experiment in a line: Antitubercular activity against multidrug resistant Mycobacterium tuberculosis RF21250 incubated for 5 days by microtiter plate method. Particulars: time 5 day; for MIC: Mycobacterium tuberculosis, RF21250, 120 h.
Test [2] relates to Mycobacterium tuberculosis. The experiment in a line: Potentiation of rifampicin antitubercular activity against multidrug resistant Mycobacterium tuberculosis BLG3381 assessed as decrease in rifampicin MIC99.9 at 3.125 ug/ml by broth dilution method (reference value: 64 ug/ml). The note with it: dose 3.125 µg/ml. On the technique in general: In broth dilution the organism is exposed to a series of concentrations in liquid medium.

For test [3], the system named is Mycobacterium tuberculosis. The experiment in a line: Antitubercular activity against multidrug resistant Mycobacterium tuberculosis RF21212 incubated for 5 days by microtiter plate method. The note with it: time 5 day; for MIC: Mycobacterium tuberculosis, RF21212, 120 h.
Test [4] concerns Mycobacterium tuberculosis. The experiment in a line: Antitubercular activity against multidrug resistant Mycobacterium tuberculosis BLG3381 incubated for 5 days by microtiter plate method. Particulars: BLG3381, 120 h, time 5 day.
Test [5] has as its system Mycobacterium tuberculosis. The experiment in a line: Potentiation of isoniazid antitubercular activity against multidrug resistant Mycobacterium tuberculosis RF21250 assessed as decrease in isoniazid MIC99.9 at 0.78 ug/ml by broth dilution method (reference value: 3.2 ug/ml). Particulars: dose 0.78 µg/ml.
Test [6] has as its system Mycobacterium tuberculosis. As to the kind of experiment: Potentiation of rifampicin antitubercular activity against multidrug resistant Mycobacterium tuberculosis RF21250 assessed as decrease in rifampicin MIC99.9 at 0.78 ug/ml by broth dilution method (reference value: 128 ug/ml). Particulars: dose 0.78 µg/ml.
Test [7] has as its system Mycobacterium tuberculosis. As to the kind of experiment: Potentiation of isoniazid antitubercular activity against multidrug resistant Mycobacterium tuberculosis BLG3381 assessed as decrease in isoniazid MIC99.9 at 3.125 ug/ml by broth dilution method (reference value: 12.8 ug/ml). The note with it: dose 3.125 µg/ml.
Test [8] has as its system Mycobacterium tuberculosis. As to the kind of experiment: Potentiation of isoniazid antitubercular activity against multidrug resistant Mycobacterium tuberculosis RF21212 assessed as decrease in isoniazid MIC99.9 at 3.125 ug/ml by broth dilution method (reference value: 12.8 ug/ml). Particulars: dose 3.125 µg/ml.
In test [9] the test system is Mycobacterium tuberculosis. As to the kind of experiment: Potentiation of rifampicin antitubercular activity against multidrug resistant Mycobacterium tuberculosis RF21212 assessed as decrease in rifampicin MIC99.9 at 3.125 ug/ml by broth dilution method (reference value: 128 ug/ml). The note with it: dose 3.125 µg/ml.
The test system of test [10] is Mycobacterium tuberculosis. As to the kind of experiment: Potentiation of isoniazid antitubercular activity against multidrug resistant Mycobacterium tuberculosis RF21212 assessed as decrease in isoniazid MIC99.9 at 1.56 ug/ml by broth dilution method (reference value: 12.8 ug/ml). The note with it: dose 1.56 µg/ml.
Test [11] relates to Mycobacterium tuberculosis. The experiment in a line: Potentiation of rifampicin antitubercular activity against multidrug resistant Mycobacterium tuberculosis RF21212 assessed as decrease in rifampicin MIC99.9 at 0.78 ug/ml by broth dilution method (reference value: 128 ug/ml). The note with it: dose 0.78 µg/ml.
Test [12] concerns Mycobacterium tuberculosis. The experiment in a line: Potentiation of rifampicin antitubercular activity against multidrug resistant Mycobacterium tuberculosis BLG3381 assessed as decrease in rifampicin MIC99.9 at 6.25 ug/ml by broth dilution method (reference value: 64 ug/ml). Particulars: dose 6.25 µg/ml.
Test [13] relates to Mycobacterium tuberculosis. The experiment in a line: Potentiation of isoniazid antitubercular activity against multidrug resistant Mycobacterium tuberculosis BLG3381 assessed as decrease in isoniazid MIC99.9 at 6.25 ug/ml by broth dilution method (reference value: 12.8 ug/ml). Particulars: dose 6.25 µg/ml.
Test [14] has as its system Mycobacterium tuberculosis. The experiment in a line: Potentiation of rifampicin antitubercular activity against multidrug resistant Mycobacterium tuberculosis RF21250 assessed as decrease in rifampicin MIC99.9 at 3.125 ug/ml by broth dilution method (reference value: 128 ug/ml). The note with it: dose 3.125 µg/ml.
Test [15] has as its system Mycobacterium tuberculosis. As to the kind of experiment: Potentiation of isoniazid antitubercular activity against multidrug resistant Mycobacterium tuberculosis RF21250 assessed as decrease in isoniazid MIC99.9 at 3.125 ug/ml by broth dilution method (reference value: 3.2 ug/ml). The note with it: dose 3.125 µg/ml.
Test [16] deals with Mycobacterium tuberculosis. As to the kind of experiment: Potentiation of rifampicin antitubercular activity against multidrug resistant Mycobacterium tuberculosis RF21212 assessed as decrease in rifampicin MIC99.9 at 1.56 ug/ml by broth dilution method (reference value: 128 ug/ml). Particulars: dose 1.56 µg/ml.
Test [17] deals with Mycobacterium tuberculosis. The experiment in a line: Potentiation of isoniazid antitubercular activity against multidrug resistant Mycobacterium tuberculosis RF21250 assessed as decrease in isoniazid MIC99.9 at 1.56 ug/ml by broth dilution method (reference value: 3.2 ug/ml). Particulars: dose 1.56 µg/ml.
Test [18] concerns Mycobacterium tuberculosis. The experiment in a line: Potentiation of isoniazid antitubercular activity against multidrug resistant Mycobacterium tuberculosis RF21250 assessed as decrease in isoniazid MIC99.9 at 0.39 ug/ml by broth dilution method (reference value: 3.2 ug/ml). Particulars: dose 0.39 µg/ml.
Test [19] has as its system Mycobacterium tuberculosis. The experiment in a line: Potentiation of isoniazid antitubercular activity against multidrug resistant Mycobacterium tuberculosis BLG3381 assessed as decrease in isoniazid MIC99.9 at 0.39 ug/ml by broth dilution method (reference value: 12.8 ug/ml). The note with it: dose 0.39 µg/ml.
The subject of test [20] is Mycobacterium tuberculosis. The experiment in a line: Potentiation of rifampicin antitubercular activity against multidrug resistant Mycobacterium tuberculosis BLG3381 assessed as decrease in rifampicin MIC99.9 at 0.39 ug/ml by broth dilution method (reference value: 64 ug/ml). Particulars: dose 0.39 µg/ml.
Test [21] has as its system Mycobacterium tuberculosis. The experiment in a line: Potentiation of rifampicin antitubercular activity against multidrug resistant Mycobacterium tuberculosis RF21250 assessed as decrease in rifampicin MIC99.9 at 0.39 ug/ml by broth dilution method (reference value: 128 ug/ml). Particulars: dose 0.39 µg/ml.
For test [22], the system named is Mycobacterium tuberculosis. The experiment in a line: Potentiation of isoniazid antitubercular activity against multidrug resistant Mycobacterium tuberculosis RF21212 assessed as decrease in isoniazid MIC99.9 at 0.78 ug/ml by broth dilution method (reference value: 12.8 ug/ml). The note with it: dose 0.78 µg/ml.

`O=C1C(Cl)=C(N2C(=O)C(Cl)C2c2ccc([N+](=O)[O-])cc2)C(=O)c2ccccc21` (stereo not given): the MIC99.9 is 3.125 µg/mL (≈ 7.49 µM) in test [1]; 0.25 µg/mL in test [2]; 0.4 µg/mL in test [5]; 2 µg/mL in test [6]; 0.025 µg/mL in [7]; 1.6 µg/mL in [8]. Besides, the MIC99.9 in test [9] is 2 µg/mL. In addition, the MIC in test [3] amounted to 30 µM (≈ 12.5 µg/mL); in [4], 15 µM.

`CCOc1cc(C2C(Cl)C(=O)N2C2=C(Cl)C(=O)c3ccccc3C2=O)ccc1O` (stereo not given): the MIC99.9 in test [10] worked out at 0.4 µg/mL; in test [1], 3.125 µg/mL (≈ 7.23 µM); in test [2], 0.5 µg/mL; in test [11], 0.5 µg/mL; in [5], 0.2 µg/mL; in test [6], 1 µg/mL. For the same molecule, the MIC99.9 in [7] worked out at 0.05 µg/mL. Besides, the figures for the MIC in test [3] and in test [4] were 7.23 µM (≈ 3.13 µg/mL) and 28.9 µM, respectively.

In the case of `CO[C@H]1/C=C/O[C@@]2(C)Oc3c(C)c(O)c4c(O)c(c(/C=N/N5CCN(C)CC5)c(O)c4c3C2=O)NC(=O)/C(C)=C\C=C\[C@H](C)[C@H](O)[C@@H](C)[C@@H](O)[C@@H](C)[C@H](OC(C)=O)[C@@H]1C` [RIFAMPIN], the MIC in test [1] was determined as 156 µM (≈ 128 µg/mL); in [3], 156 µM (≈ 128 µg/mL); in test [4], 77.8 µM.

In the case of `NNC(=O)c1ccncc1` [ISONIAZID], the MIC in test [1] worked out at 23.3 µM (≈ 3.2 µg/mL); in test [3] it was 93.9 µM (≈ 12.9 µg/mL); in test [4], 93.9 µM.

Regarding `O=C1C(Cl)=C(Cl)C(=O)c2ccccc21` [Dichlon], the MIC99.9 stood at 8 µg/mL in test [12]; 0.8 µg/mL in test [13]; 16 µg/mL in [14]; 0.4 µg/mL in test [15]; 3.2 µg/mL in test [8]; 32 µg/mL in test [9]. Besides, the values for the minimal inhibitory concentration (MIC) in [1], in test [3] and in test [4] were 27.5 µM (≈ 6.25 µg/mL), 55.1 µM (≈ 12.5 µg/mL) and 55.1 µM, respectively.

Regarding `CN(C)c1ccc(C2C(Cl)C(=O)N2C2=C(Cl)C(=O)c3ccccc3C2=O)cc1` (stereo not given), the MIC99.9 stood at 3.2 µg/mL in [10]; 6.25 µg/mL (≈ 15.1 µM) in [1]; 4 µg/mL in test [2]; 16 µg/mL in test [16]; 6.25 µg/mL (≈ 15.1 µM) in test [3]; 1 µg/mL in test [6]. Further, the MIC99.9 in test [7] and in test [17] was 1.6 µg/mL throughout. For the same molecule, 30.1 µM was the least that counted as inhibitory in [4] (MIC).

Take `NC1=C(Cl)C(=O)c2ccccc2C1=O`: the MIC99.9 in test [18] was determined as 0.2 µg/mL; in [1], 3.125 µg/mL (≈ 15.1 µM); in test [19], 0.8 µg/mL; in [3], 6.25 µg/mL (≈ 30.1 µM); in test [20] it was 0.007 µg/mL; in test [21] it was 0.125 µg/mL. In addition, the results for the MIC99.9 in test [8] and in test [9] were 1.6 µg/mL and 4 µg/mL, respectively. In test [4], this molecule showed an MIC of 15.1 µM.

Take `O=C1C(Cl)=C(N2C(=O)C(Cl)C2c2ccc(Cl)cc2)C(=O)c2ccccc21` (stereo not given): the MIC99.9 in [10] came to 0.1 µg/mL; in [1] it was 6.25 µg/mL (≈ 15.4 µM); in test [2], 0.1 µg/mL; in test [16], 0.031 µg/mL; in test [3], 6.25 µg/mL (≈ 15.4 µM); in [5], 0.8 µg/mL. The MIC99.9 was 4 µg/mL in test [6] and 1.6 µg/mL in test [7]. In [4], the MIC came to 30.8 µM.

Molecule `O=C1C(Cl)=C(N2C(=O)C(Cl)C2c2ccccc2)C(=O)c2ccccc21` (stereo not given) registered an MIC in test [4] of 6.25 µg/mL.

As to `COc1ccc(C2C(Cl)C(=O)N2C2=C(Cl)C(=O)c3ccccc3C2=O)cc1` (stereo not given), the MIC99.9 came to 0.4 µg/mL in test [18]; 6.25 µg/mL (≈ 15.5 µM) in [1]; 1 µg/mL in [2]; 16 µg/mL in test [16]; 1.6 µg/mL in [22]; 0.4 µg/mL in test [7]. Also, the MIC99.9 in test [21] was found to be 0.125 µg/mL. Besides, the values for the MIC in [3] and in [4] were 31.1 µM (≈ 12.5 µg/mL) and 15.5 µM, respectively.
